Measured values published in patent US20260130936A1, “COMPOSITIONS COMPRISING AN ACTIVE INGREDIENT MIXTURE COMPRISING SILICON AND BIOTIN AND METHODS OF USE” (Nutrition21, LLC, priority 2022, published 2026).

Experiments:
[1] = system: hair and nail growth; experiment: Hair density, anagen ratio, telogen ratio, nail growth and molecular analysis in rats (Example 4); type: in vivo, Sprague-Dawley rats
Procedure: Twenty-eight female Sprague-Dawley rats (8 weeks old) were randomized into one of the following groups: (i) group (control), shaved; (ii) group (ASI), shaved+ASI (4.14 mg/rat/day); (iii) group (ASI+MgB I), shaved+ASI (4.14 mg/rat/day)+MgB (48.7 μg/rat/day); and (iv) group (ASI+MgB II), shaved+ASI (4.14 mg/rat/day)+MgB (325 μg/rat/day). On day 42, compared with the control group, while hair density (p<0.05, p<0.01, and p<0.0001, respectively) and anagen ratio (p<0.01, p<0.01, and p<0.001) increased in the ASI, ASI+MgB I, and ASI+MgB II groups, telogen ratio decreased (p<0.01, p<0.01, and p<0.001, respectively). In the molecular analysis, VEGF, HGF, and KGF-2 increased in the ASI (p<0.01, p<0.01, and p<0.05, respectively), ASI+MgB I (p<0.0001 for all), and ASI+MgB II (p<0.0001 for all) groups when compared to the control group. […] SIRT-1 and β-catenin increased in the ASI (p<0.05 and p<0.01), ASI+MgB I (p<0.001 for both), and ASI+MgB II (p<0.0001 for both) groups. Wnt-1 increased in the ASI+MgB I (p<0.001) and ASI+MgB II (p<0.0001) groups.

[2] = preclinical models; compared to D-biotin; cited from earlier work
[3] = Water solubility; type: physicochemical; conditions: greater than biotin
[4] = day 42, compared with the control group

Substance | anagen ratio [1, 4] | hair density [1, 4] | telogen ratio [1, 4] | SIRT-1 and β-catenin ([1]; molecular analysis) | VEGF, HGF, and KGF-2 ([1]; molecular analysis, compared to the control group) | nail growth ([1]; rats) | absorption and uptake in tissue [2] | water solubility relative to biotin [3]
inositol-stabilized arginine silicate complex [ASI] | increased | increased | decreased | increased | increased | did not affect nail growth |  | 
magnesium biotinate |  |  |  |  |  |  | superior absorption and greater uptake in tissue | about 40 times
